Test results reported in patent US20090105461A1, “Calicheamicin conjugates” (priority 2004, published 2009).

Legend:
[1] = tested on: human carcinoma xenografts; experiment: Human carcinoma xenografts in nude mice (all models); format: in vivo; settings: doses equivalent to hu3S193-AcBut-CM; earlier experiments, data not shown
Procedure: (§1) The antitumor efficacy of calicheamicin conjugated to anti-Lewis Y antibodies was evaluated against human carcinoma xenografts established subcutaneously (SC) in nude mice. The evaluated xenografts included carcinomas that had either high or low expression of the Lewis Y antigen and carcinomas from breast, colon, lung, and prostate. Mice bearing solid tumors with an average mass of 150 to 300 mg were randomized to various treatment groups.
(§2) The efficacy in vivo of CMD-193 was tested on subcutaneous xenografts from gastric (N87), lung (L2987), cervical/epidermoid (A431/Le^y) and colon (LS174T and LOVO) carcinomas. Unless indicated otherwise, all conjugates and controls were injected intraperitoneally according to Q4DX3 schedule. To monitor for tumor targeting due to the carrier function of immunoglobulin, CMA was used as a negative control. Based on the studies described below, a dosage of 15 mg/kg of CMD-193 (equivalent to a conjugated antibody protein dosage in the range of 562 to 803 mg/m^2) was considered to be the minimum efficacious dose (MED).

[2] = tested on: HL-60 promyelocytic leukemia cells; settings: HL-60 leukemia cells
[3] = tested on: LOVO colon carcinoma xenografts; experiment: LOVO colon carcinoma xenografts; format: in vivo, nude mice; settings: for tumor inhibition of LOVO xenografts: hu3S193-AcBut-CM experiments (FIGS. 5, 6)
Procedure: (§3) The efficacy in vivo of hu3S193-AcBut-CM was tested on subcutaneous xenografts from gastric (N87, FIG. 3), prostate (LNCaP, FIG. 4) and colon (LOVO, FIGS. 5 and 6) carcinomas. Subcutaneous tumors of N87, LOVO and LNCaP were grown in athymic nude mice (Charles River, Wilmington, Mass.). Female mice of 1.5 to 3 months old were injected with respectively 5×10^6 N87 or 10^7 LOVO cells per mouse. LNCaP cells were injected in male nude mice that were 3 months old. To grow tumors, N87 and LNCaP cells had to be mixed (1:1, vol/vol) with […]® (Collaborative Biomedical Products, Belford, Mass.) prior to injection. Two perpendicular diameters of the tumor were measured at least once a week by means of calipers. The tumor volume was calculated according to the formula of Attia & Weiss: A^2×B×0.4.
Unless indicated otherwise, 3 doses of each conjugate and control were given intraperitoneally with an interval of 4 days (Q4Dx3). In vivo, hu3S193-AcBut-CM inhibited tumor growth in these three separate models. Hu3S193-AcBut-CM cured mice from gastric carcinoma xenografts (N87) having high expression of Lewis Y antigen (FIG. 3). […] In the LOVO model, the efficacy of hu3S193-AcBut-CM was improved by increasing the amount of the conjugate (FIG. 5).
Mice bearing LOVO xenografts of 100 mm^3 were treated with control conjugates (RITUXAN-AcBut-CM, FIG. 5A), PBS (FIGS. 5A and 5B), hu3S193 (FIG. 5B) or hu3S193-AcBut-CM (FIG. 5B). Except for the group treated with Hu3S193-AcBut-CM at 4 μg/dose, mice in each group received three doses i.p. The amount of each dose in calicheamicin equivalents is specified in the legend. Conjugates and controls were injected at day 1, 5 and 9. The groups were designated as follows: hu3S193-AcBut-CM, received an additional regimen of three doses at day 43, 47 and 51. The number of mice per group (n) is reported in C. Differences in tumor size at day 30 were probed for statistical significance by a 2-tailed Students t-test.
Mice bearing LOVO xenografts of 100 mm^3 were treated with control conjugates: RITUXAN-AcBut-CM and CMA (FIG. 6A), PBS or hu3S193-AcBut-CM (FIG. 6B). Mice in each group received three or four doses i.p. The amount of each dose in calicheamicin equivalents is specified in the legend. Conjugates and controls were injected at day 1, 5 and 9. The group designated: hu3S193-AcBut-CM*, received an additional dose at day 13. The number of mice per group equals n and p-values of a 2-tailed Students t-test were determined.
Mice bearing LOVO xenografts were tested to investigate the potential benefits of regimens different from 4 μg cal.eq./dose/mouse at Q4DX3. Mice bearing LOVO xenografts of approximately 100 mm^3 were treated with PBS, G193 or various regimens of a control conjugate CMA or CMD. The amount of each dose in calicheamicin equivalents is specified in the legends. The LOVO-model was chosen for this type of experiment because of the marginal efficacy seen with 4 μg cal.eq. at Q4DX3.

[4] = tested on: MX1 breast carcinoma xenografts; experiment: MX1 breast carcinoma xenografts; format: in vivo, nude mice; settings: MX1, at least 35 days
Procedure: The effect of CMD-193 on the growth of established xenografts of carcinomas that had low expression of the Lewis Y antigen was also examined in MX1 breast carcinoma. CMA-676 was used as a nonbinding control conjugate. Nude mice explanted with MX1 breast carcinoma were treated with various dosages of CMD-193 (40 to 240 mg/kg) or CMA-676 (a negative control). Tumor growth was recorded for at least 35 days. In contrast, CMA-676 was effective only at the highest dosages (160 mg/kg) tested.

[5] = tested on: N87 gastric carcinoma xenografts; experiment: N87 gastric carcinoma xenografts; format: in vivo, nude mice; settings: 150 mm^3 xenografts
Procedure: as §1, §3
Unless indicated otherwise, 3 doses of each conjugate and control were given intraperitoneally with an interval of 4 days (Q4Dx3). […]

[6] = tested on: L2987 lung carcinoma xenografts; experiment: L2987 lung carcinoma xenografts; format: in vivo, nude mice; settings: 0.375 to 3 μg/dose/mouse, Q4DX3 i.p.
Procedure: as §2
Mice bearing L2987 xenografts of 100 mm^3 were treated with a control conjugate (CMA), PBS or CMD. Mice in each group received three doses i.p. The amount of each dose in calicheamicin equivalents is specified in the legends. Conjugates and controls were injected at day 1, 5 and 9. […] The error bars represent the standard deviation of the average tumor volume at each time point. The number of mice (expressed as a percentage) with a tumor size smaller than the initial tumor average of each group was plotted as a function of the observation period in FIG. 12. Treatment with CMA (FIG. 12A) or CMD (FIG. 12B) is compared to treatment with vehicle control (PBS).
For the experiment shown in FIG. 13, 10 mice received L2987 xenografts. […]

[7] = tested on: LS174T colon carcinoma xenografts; experiment: LS174T colon carcinoma xenografts; format: in vivo, nude mice
Procedure: as §2
Mice bearing LS174T xenografts of 150 mm^3 were treated with a control conjugate (CMA), PBS or CMD. Mice in each group received three doses i.p. The amount of each dose in calicheamicin equivalents is specified in the legends. Conjugates and controls were injected at day 1, 5 and 9. LS174T tumors proliferated so fast that in the control group all the mice had to be killed within a 51-day period because of the large tumor burden (>2.5 cm^3). In the group treated with 4 ug cal.eq. CMD (Q4DX3), 3 out of five mice were killed within 44 days because of a large tumor burden (1/3) or because of necrosis of the tumor (2/3). Of the other two mice one remained tumor-free for 125 days while the other one had developed a small tumor. […] CMD (Q4DX3) or 4 ug cal.eq CMA (Q4DX3). […]

Molecule | tumor inhibition by free CM [1] | metabolites produced [2] | major biotransformation pathways (cytosol) | metabolites after incubation (human liver microsomes and cytosol) | biotransformation pathways (microsomes) | period of statistically significant difference in tumor size from PBS ([3]; 2 μg cal.eq. per mouse Q4Dx3) [days] | period of statistically significant difference in tumor size from PBS ([3]; 4 μg cal.eq. per mouse Q4Dx3) [days] | tumor inhibition of LOVO xenografts [3] | efficacy on LOVO xenografts ([3]; CMD experiment (FIG. 18)) | lowest dosage with significant growth inhibition [4] [mg/kg] | growth inhibition versus hu3S193-AcBut-CM or CMD at equivalent doses [5] | growth of L2987 xenografts [6] | cures ([7]; 2 ug cal.eq. Q4DX3) | cures ([7]; 4 ug cal.eq. Q4DX3)
CCN(C(C)=O)[C@H]1CO[C@@H](O[C@H]2[C@H](O[C@H]3C#C/C=C\C#C[C@]4(O)CC(=O)C(NC(=O)OC)=C3/C4=C\CSSC(C)(C)CC(=O)NN)O[C@H](C)[C@@H](NO[C@H]3C[C@H](O)[C@H](SC(=O)c4c(C)c(I)c(O[C@@H]5O[C@@H](C)[C@H](O)[C@@H](OC)[C@H]5O)c(OC)c4OC)[C@@H](C)O3)[C@@H]2O)C[C@@H]1OC [CM, N-acetyl gamma calicheamicin dimethyl hydrazide] | never inhibited | Several metabolites, including NAc-epsilon calicheamicin and its isomer | formation of NAc-epsilon calicheamicin and it's derivatives | Many metabolites were found | hydroxylation and demethylation | – | – | – | – | – | – | – | – | –
RITUXAN-AcBut-CM: calicheamicin-conjugate of RITUXAN (anti-CD20), control conjugate | – | – | – | – | – | 16 | 16 | negligible tumor inhibition | – | – | – | – | – | –
CMA-676: calicheamicin conjugate of an anti-CD33 antibody, used as control conjugate | – | – | – | – | – | – | – | negligible tumor inhibition | lack of efficacy | 160 | inhibited growth significantly less | significant growth inhibitory effect | one out of the five | No cures
